Data reported in patent publication US20230173077A1 (AJK BIOPHARMACEUTICAL, LLC, priority 2020, published 2023).
Where two headings read alike, the source gives them in different places.

Tested on: HCoV-229E
Test: Antiviral activity and toxicity against HCoV-229E
Format: cell-based

SMILES	EC50	EC50 (Human coronavirus 229E)
CCCCCCCCCCCCCC(=O)OCC1OC(n2cc(F)c(N)nc2=O)CS1 (centres unmarked) [5′-O-tetradecanoyl ester conjugate of 2′,3′-dideoxy-5-fluoro-3′-thiacytidine]	82 µM	
CCC(CC)COC(=O)[C@H](C)N[P@](=O)(OC[C@H]1O[C@@](C#N)(c2ccc3c(N)ncnn23)[C@H](O)[C@@H]1O)Oc1ccccc1 [RDV, Remdesivir]		0.07 µM
